Measurements published in paper PMC9138141, “Design, Spectral Characteristics, Photostability, and Possibilities for Practical Application of BODIPY FL-Labeled Thioterpenoid” (Bioengineering, 2022).
Where two headings read alike, the source gives them in different places.

Columns and labels:
[1] = Luminescent characteristics (fluorescence) in organic solvents; assay type: physicochemical; settings: for λmaxfl: λex 470 nm
Method: (§1) The absorption and emission spectra of dyes solutions (in the range of 10^−6 to 10^−5 M) were recorded on CM 2203 spectrofluorometer (SOLAR) in a 10 mm of absorbing layer thickness at T = 25 ± 0.1 °C. The fluorescence quantum yield (φ), the fluorescence lifetime (τ), the rate constants of radiative processes (krad), and-radiative deactivation (knr) were obtained to use by the standard procedure. The fluorescence quantum yields (φ) of compounds were measured using the standard method (using standard Rhodamine 6G). The φ and τ errors were 10–15 %. The Stokes shift ( ΔλSt ) was calculated by the formula: […]

[2] = Electronic absorption spectra in organic solvents; assay type: physicochemical
Method: as §1

[3] = tested on: laboratory mice erythrocytes; assay: Penetration into RBC (fluorescence of hemolysates and of residual medium); assay type: cell-based; settings: 20 μM, 10, 30, 60 min incubation, RBC washed three times with PBS
Method: To assess the rate of penetration of the BODIPY 2 and its conjugate with a thioterpenoid 6 into RBC, the compounds were added to a suspension of erythrocytes (final concentration 20 μM) and incubated in a thermostatic shaker Biosan ES-20 with slow stirring at 37 °C. After 10, 30, and 60 min, an aliquot was taken and centrifuged to separate erythrocytes from the incubation medium containing the BODIPY 2 or conjugate 6. Erythrocytes were washed three times with PBS, hemolyzed by adding H2O, DMSO was added, and the fluorescence spectra of hemolysates were studied using a Fluorat-02-Panorama spectrofluorometer (Lumex, Saint Petersburg, Russia). The binding of the BODIPY 2 or conjugate 6 to cells was judged from the fluorescence intensity of the corresponding compounds in hemolysates. DMSO was added to the medium (PBS) remaining after cell incubation, and the corresponding fluorescence spectra were also analyzed. Its intensity was used to judge the residual content of the studied compounds in PBS.

[4] = Photobleaching (photodegradation) under UV irradiation at 365 nm; assay type: physicochemical; settings: for kobs∙106 of photodegradation / half-life: UV 365 nm; for half-life: read-out: t1/2 of photodegradation (converted)
Method: The photofading was carried out in quartz cells. The BODIPY solutions in cyclohexane (toluene, 1-octanol, DMSO with c = ~1·10^−5 mol·L^−1) were irradiated with monochromatic light (mercury lamp 250 W with a light filter Carl Zeiss JENA, at λ = 365 nm and room temperature). The area of the light flux was 2.02 cm^2 at a specific power W365 = 4.04 mW·cm^−2 of the UV lamp. The irreversible bleaching of the luminophores at the absorption peak was monitored as a function of time. The EAS of the dye solution was recorded at equal intervals of irradiation (through 5–20 min) on a spectrofluorometer SM2203 in the 300–600 nm wavelength range. The half-life (t1/2) was defined as the time during which the chromophore is destroyed by 50%. The error in determining of t1/2 is 3–5%.
The observed photooxidation rate constants (kobs) were determined by the equation ln(At/A0) = kobs∙t, where A0 and At are the initial and current optical density at the maximum of the long-wavelength absorption band, respectively, and t is the time of irradiation of the sample with UV light.

[5] = tested on: laboratory mice erythrocytes; assay: Hemolytic activity (erythrotoxicity); assay type: cell-based; settings: 20 µM, entire incubation period 5 h, 37 °C, PBS pH 7.4
Method: A 0.5% (v/v) suspension of laboratory mice erythrocytes in phosphate-buffered saline (PBS, pH 7.4) was used. The hemolytic activity (erythrotoxicity) of the compounds 2 and 6 was assessed by the degree of erythrocyte hemolysis 1, 3, and 5 h after the addition of solutions of the test compounds in DMSO (final concentration 20 μM). The erythrocyte suspension was incubated in a thermostatic shaker Biosan ES-20 with slow stirring at 37 °C temperature for 5 h. After 1, 3, and 5 h, an aliquot was taken, centrifuged, the degree of hemolysis was determined by the hemoglobin content in the supernatant on a Thermo Spectromic Genesys 20 spectrophotometer at λ = 541 nm. The percentage of hemolysis was calculated relative to the total hemolysis of the sample.

[6] = range over the solvents studied

CC1=CC(C)=[N+]2C1=Cc1c(C)cc(C)n1[B-]2(F)F [Compound 7, 4,4-Difluoro-1,3,5,7-tetramethyl-4-bora-3a,4a-diaza-s-indacene, reference compound]
ΔλSt, Stokes shift ([1]; 1-butanol): 10 nm | φ, fluorescence quantum yield ([1]; 1-butanol): 0.932 | λmaxfl ([1]; 1-butanol): 516 nm | ΔλSt, Stokes shift ([1]; 1-octanol): 8 nm | φ, fluorescence quantum yield ([1]; 1-octanol): 0.941 | λmaxfl ([1]; 1-octanol): 516 nm | ΔλSt, Stokes shift ([1]; 1-propanol): 10 nm | φ, fluorescence quantum yield ([1]; 1-propanol): 0.920 | λmaxfl ([1]; 1-propanol): 513 nm | ΔλSt, Stokes shift ([1]; DMF): 10 nm | φ, fluorescence quantum yield ([1]; DMF): 0.990 | λmaxfl ([1]; DMF): 513 nm | ΔλSt, Stokes shift ([1]; DMSO): 12 nm | φ, fluorescence quantum yield ([1]; DMSO): 0.963 | λmaxfl ([1]; DMSO): 516 nm | Stokes shift, range ([1]; all solvents): 6–12 nm | ΔλSt, Stokes shift ([1]; chloroform): 8 nm | φ, fluorescence quantum yield ([1]; chloroform): 0.903 | λmaxfl ([1]; chloroform): 516 nm | φ, fluorescence quantum yield ([1]; cyclohexane): 1.0 | λmaxfl ([1]; cyclohexane): 514 nm | ΔλSt, Stokes shift ([1]; ethanol): 7 nm | φ, fluorescence quantum yield ([1]; ethanol): 0.879 | λmaxfl ([1]; ethanol): 512 nm | ΔλSt, Stokes shift ([1]; toluene): 8 nm | φ, fluorescence quantum yield ([1]; toluene): 0.825 | λmaxfl ([1]; toluene): 519 nm | ε, molar absorption coefficient ([2]; 1-butanol): 86745 L/mol/cm | λmaxabs S0→S1 ([2]; 1-butanol): 506 nm | λmaxabs S0→S2 ([2]; 1-butanol): 364–375 nm | ε, molar absorption coefficient ([2]; 1-octanol): 84427 L/mol/cm | λmaxabs S0→S1 ([2]; 1-octanol): 508 nm | λmaxabs S0→S2 ([2]; 1-octanol): 362–376 nm | ε, molar absorption coefficient ([2]; 1-propanol): 87096 L/mol/cm | λmaxabs S0→S1 ([2]; 1-propanol): 503 nm | λmaxabs S0→S2 ([2]; 1-propanol): 362–375 nm | ε, molar absorption coefficient ([2]; DMF): 85857 L/mol/cm | λmaxabs S0→S1 ([2]; DMF): 503 nm | λmaxabs S0→S2 ([2]; DMF): 364–375 nm | ε, molar absorption coefficient ([2]; DMSO): 82190 L/mol/cm | λmaxabs S0→S1 ([2]; DMSO): 504 nm | λmaxabs S0→S2 ([2]; DMSO): 363–376 nm | ε, molar absorption coefficient ([2]; chloroform): 89125 L/mol/cm | λmaxabs S0→S1 ([2]; chloroform): 508 nm | λmaxabs S0→S2 ([2]; chloroform): 363–374 nm | ε, molar absorption coefficient ([2]; cyclohexane): 91201 L/mol/cm | λmaxabs S0→S1 ([2]; cyclohexane): 509 nm | λmaxabs S0→S2 ([2]; cyclohexane): 366–376 nm | ε, molar absorption coefficient ([2]; ethanol): 81283 L/mol/cm | λmaxabs S0→S1 ([2]; ethanol): 505 nm | λmaxabs S0→S2 ([2]; ethanol): 363–374 nm | ε, molar absorption coefficient ([2]; toluene): 82444 L/mol/cm | λmaxabs S0→S1 ([2]; toluene): 511 nm | λmaxabs S0→S2 ([2]; toluene): 365–373 nm

COC(=O)CCCC1=C2C(C)=CC(C)=[N+]2[B-](F)(F)n2c(C)cc(C)c21 [Compound 2]
penetration into erythrocytes (fluorescence of RBC hemolysates) [3]: practically not detected in hemolysates | kobs∙106 of photodegradation ([4]; 1-octanol): 3.1 ± 0.3 s⁻¹ | kobs∙106 of photodegradation ([4]; DMSO): 27.7 ± 0.3 s⁻¹ | kobs∙106 of photodegradation ([4]; cyclohexane): 2.9 ± 0.3 s⁻¹ | half-life ([4]; solution in 1-octanol, 1-octanol): 3.43 days | half-life ([4]; solution in DMSO, DMSO): 0.346 days | half-life ([4]; solution in cyclohexane, cyclohexane): 3.69 days | half-life ([4]; solution in toluene, toluene): 1.69 days | half-life increase / photodestruction rate constant decrease compared to 7 ([4]; studied solvents): 1.5–2.2 times | kobs∙106 of photodegradation ([4]; toluene): 5.5 ± 0.3 s⁻¹ | ΔλSt, Stokes shift ([1]; 1-butanol): 15 nm | φ, fluorescence quantum yield ([1]; 1-butanol): 0.966 | λmaxfl ([1]; 1-butanol): 513 nm | ΔλSt, Stokes shift ([1]; 1-octanol): 16 nm | φ, fluorescence quantum yield ([1]; 1-octanol): 0.989 | λmaxfl ([1]; 1-octanol): 515 nm | ΔλSt, Stokes shift ([1]; 1-propanol): 16 nm | φ, fluorescence quantum yield ([1]; 1-propanol): 0.956 | λmaxfl ([1]; 1-propanol): 514 nm | ΔλSt, Stokes shift ([1]; DMF): 15 nm | φ, fluorescence quantum yield ([1]; DMF): 0.836 | λmaxfl ([1]; DMF): 512 nm | ΔλSt, Stokes shift ([1]; DMSO): 15 nm | φ, fluorescence quantum yield ([1]; DMSO): 0.769 | λmaxfl ([1]; DMSO): 512 nm | ΔλSt, Stokes shift ([1]; chloroform): 15 nm | φ, fluorescence quantum yield ([1]; chloroform): 0.908 | λmaxfl ([1]; chloroform): 516 nm | ΔλSt, Stokes shift ([1]; cyclohexane): 12 nm | φ, fluorescence quantum yield ([1]; cyclohexane): 0.999 | λmaxfl ([1]; cyclohexane): 512 nm | fluorescence quenching ([1]; electron-donating media): 16–24% | ΔλSt, Stokes shift ([1]; ethanol): 13 nm | φ, fluorescence quantum yield ([1]; ethanol): 0.910 | increase of fluorescence quantum yield in the homologous series of alcohols ([1]; ethanol, 1-propanol, 1-butanol, 1-octanol): ~ 8% | λmaxfl ([1]; ethanol): 510 nm | constants of radiative processes (krad) [1, 6]: 5.96–8.33 × 10^7 s^−1 | fluorescence lifetime [1, 6]: 10.2–16.0 ns | ΔλSt, Stokes shift ([1]; toluene): 17 nm | φ, fluorescence quantum yield ([1]; toluene): 0.991 | λmaxfl ([1]; toluene): 518 nm | emission band maxima λmaxfl, range ([1]; λex = 470 nm, all solvents): 510–519 nm | ε, molar absorption coefficient ([2]; 1-butanol): 74136 L/mol/cm | λmaxabs S0→S1 ([2]; 1-butanol): 498 nm | λmaxabs S0→S2 ([2]; 1-butanol): 356–363 nm | ε, molar absorption coefficient ([2]; 1-octanol): 72443 L/mol/cm | λmaxabs S0→S1 ([2]; 1-octanol): 499 nm | λmaxabs S0→S2 ([2]; 1-octanol): 357–364 nm | ε, molar absorption coefficient ([2]; 1-propanol): 74948 L/mol/cm | λmaxabs S0→S1 ([2]; 1-propanol): 498 nm | λmaxabs S0→S2 ([2]; 1-propanol): 359–369 nm | ε, molar absorption coefficient ([2]; DMF): 76709 L/mol/cm | λmaxabs S0→S1 ([2]; DMF): 497 nm | λmaxabs S0→S2 ([2]; DMF): 357–363 nm | ε, molar absorption coefficient ([2]; DMSO): 66069 L/mol/cm | λmaxabs S0→S1 ([2]; DMSO): 497 nm | λmaxabs S0→S2 ([2]; DMSO): 356–363 nm | ε, molar absorption coefficient ([2]; chloroform): 74131 L/mol/cm | λmaxabs S0→S1 ([2]; chloroform): 501 nm | λmaxabs S0→S2 ([2]; chloroform): 358–363 nm | ε, molar absorption coefficient ([2]; cyclohexane): 87724 L/mol/cm | λmaxabs S0→S1 ([2]; cyclohexane): 500 nm | λmaxabs S0→S2 ([2]; cyclohexane): 359–364 nm | ε, molar absorption coefficient ([2]; ethanol): 72444 L/mol/cm | λmaxabs S0→S1 ([2]; ethanol): 497 nm | λmaxabs S0→S2 ([2]; ethanol): 356–361 nm | ε, molar absorption coefficient ([2]; toluene): 79432 L/mol/cm | λmaxabs S0→S1 ([2]; toluene): 501 nm | λmaxabs S0→S2 ([2]; toluene): 360–368 nm | hemolysis of RBC (erythrotoxicity) [5]: did not exceed the spontaneous level
